Active and inactive are the calls of the source.
Experiments:
Cysteine protease ATG4B = molecular target: T1, Cysteine protease ATG4B (Homo sapiens, UniProt Q9Y4P1); type: functional;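 also: Fluorescence-based dose-response confirmation assay measuring inhibition of ATG4B activity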
T1 sequence (Q9Y4P1 whole entry): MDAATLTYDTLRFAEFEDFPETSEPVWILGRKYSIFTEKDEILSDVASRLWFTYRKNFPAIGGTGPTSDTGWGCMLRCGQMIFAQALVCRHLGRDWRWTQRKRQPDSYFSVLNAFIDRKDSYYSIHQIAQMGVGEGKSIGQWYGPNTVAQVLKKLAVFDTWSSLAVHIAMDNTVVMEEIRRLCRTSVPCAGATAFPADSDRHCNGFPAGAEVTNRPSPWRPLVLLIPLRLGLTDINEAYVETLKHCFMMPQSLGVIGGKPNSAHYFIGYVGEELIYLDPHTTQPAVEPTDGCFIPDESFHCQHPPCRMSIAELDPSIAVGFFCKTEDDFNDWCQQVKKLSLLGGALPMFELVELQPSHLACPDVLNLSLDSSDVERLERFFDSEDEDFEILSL

[1] = molecular target: Eukaryotic translation initiation factor 4E (Mus musculus, UniProt P63073); experiment: eIF4E–eIF4G protein interaction inhibitors, dose response, biochemical, TR-FRET (AID 855); type: functional;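 also: potency for disrupting eIF4E binding to eIF4GI seen as loss of FRET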
Chain of Eukaryotic translation initiation factor 4E (P63073 whole entry, the tested form may be a part): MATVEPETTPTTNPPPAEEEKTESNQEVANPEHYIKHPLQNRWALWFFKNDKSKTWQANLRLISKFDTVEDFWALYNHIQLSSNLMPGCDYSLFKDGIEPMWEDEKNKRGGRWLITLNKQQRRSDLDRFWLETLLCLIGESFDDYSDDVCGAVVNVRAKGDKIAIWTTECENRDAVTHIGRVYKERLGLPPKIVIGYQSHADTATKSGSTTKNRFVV

[2] = off-target signal loss in HeLa-CEM21 co-culture – HeLa F-luc CTL cells, cherry-picked, counter-screen for HIV-1 Env fusion inhibitor project, dose response (AID 652040); type: functional, cell-based;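 also: potency for signal decrease marking cytotoxic or nonspecific inhibition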
[3] = inhibitors of clade B AD8 Env fusion, dose response, cell-based, cherry-pick (AID 652062); type: functional;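 also: luciferase signal from cell-cell fusion driven by HIV-1 clade B AD8 Env; potency is for inhibitors of fusion seen as a drop in luminescence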
[4] = cytotoxicity in HEK-293T cells, dose response, cytotoxicity control for TCR NF-kB inhibitor project, luminescence, T-cell screen hits (AID 489026); type: functional, cell-based;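 also: cells exposed to compound about 14 hours before the viability readout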
[5] = molecular target: T2, Heat shock factor protein 1 (Mus musculus, UniProt P38532); experiment: inhibition of MG132-induced HSE-luciferase signal, confirmation, cell-based, NIH3T3, luminescence, dose retest (AID 2382); type: functional;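 also: NIH3T3 fibroblasts with HSF1-driven luciferase reporter stressed by proteasome inhibitor MG132; luminescence from HSF1-driven luciferase expression after 8 hours of MG132 stress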
T2 sequence (P38532 whole entry): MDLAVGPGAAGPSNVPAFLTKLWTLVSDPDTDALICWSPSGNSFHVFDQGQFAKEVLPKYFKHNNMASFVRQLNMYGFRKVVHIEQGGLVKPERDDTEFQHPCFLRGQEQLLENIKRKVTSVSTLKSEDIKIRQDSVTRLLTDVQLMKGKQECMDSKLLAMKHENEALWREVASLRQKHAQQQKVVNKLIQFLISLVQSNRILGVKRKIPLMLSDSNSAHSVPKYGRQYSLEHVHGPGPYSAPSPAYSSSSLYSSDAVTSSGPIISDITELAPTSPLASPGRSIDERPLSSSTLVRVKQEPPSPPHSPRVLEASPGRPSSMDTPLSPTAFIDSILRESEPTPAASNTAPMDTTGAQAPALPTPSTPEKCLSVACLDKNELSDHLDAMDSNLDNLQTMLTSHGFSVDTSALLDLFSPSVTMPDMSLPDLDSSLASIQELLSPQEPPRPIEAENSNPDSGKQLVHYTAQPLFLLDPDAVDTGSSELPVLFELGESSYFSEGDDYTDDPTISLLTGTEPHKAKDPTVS

[6] = molecular target: Peroxisome proliferator-activated receptor gamma/Nuclear receptor coactivator 3 (Homo sapiens, UniProt P37231); type: functional;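 also: agonist potency for raising coactivator recruitment to the receptor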
Chain of Peroxisome proliferator-activated receptor gamma/Nuclear receptor coactivator 3 (P37231 whole entry): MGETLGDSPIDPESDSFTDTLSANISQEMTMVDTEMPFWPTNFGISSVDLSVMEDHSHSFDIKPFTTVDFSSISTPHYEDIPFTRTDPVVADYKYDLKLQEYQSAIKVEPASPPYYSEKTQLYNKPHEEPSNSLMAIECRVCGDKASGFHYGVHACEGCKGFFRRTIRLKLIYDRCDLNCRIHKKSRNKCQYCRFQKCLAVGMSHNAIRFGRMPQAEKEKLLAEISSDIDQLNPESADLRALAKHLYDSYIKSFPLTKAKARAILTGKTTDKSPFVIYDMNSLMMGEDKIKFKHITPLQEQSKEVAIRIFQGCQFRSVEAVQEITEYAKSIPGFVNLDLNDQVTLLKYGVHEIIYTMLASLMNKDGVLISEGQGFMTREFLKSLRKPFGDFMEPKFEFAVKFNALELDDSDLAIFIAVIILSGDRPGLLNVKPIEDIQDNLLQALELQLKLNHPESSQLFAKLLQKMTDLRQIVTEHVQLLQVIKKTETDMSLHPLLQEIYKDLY
Chain of Peroxisome proliferator-activated receptor gamma/Nuclear receptor coactivator 3 (Q9Y6Q9 whole entry, further chain): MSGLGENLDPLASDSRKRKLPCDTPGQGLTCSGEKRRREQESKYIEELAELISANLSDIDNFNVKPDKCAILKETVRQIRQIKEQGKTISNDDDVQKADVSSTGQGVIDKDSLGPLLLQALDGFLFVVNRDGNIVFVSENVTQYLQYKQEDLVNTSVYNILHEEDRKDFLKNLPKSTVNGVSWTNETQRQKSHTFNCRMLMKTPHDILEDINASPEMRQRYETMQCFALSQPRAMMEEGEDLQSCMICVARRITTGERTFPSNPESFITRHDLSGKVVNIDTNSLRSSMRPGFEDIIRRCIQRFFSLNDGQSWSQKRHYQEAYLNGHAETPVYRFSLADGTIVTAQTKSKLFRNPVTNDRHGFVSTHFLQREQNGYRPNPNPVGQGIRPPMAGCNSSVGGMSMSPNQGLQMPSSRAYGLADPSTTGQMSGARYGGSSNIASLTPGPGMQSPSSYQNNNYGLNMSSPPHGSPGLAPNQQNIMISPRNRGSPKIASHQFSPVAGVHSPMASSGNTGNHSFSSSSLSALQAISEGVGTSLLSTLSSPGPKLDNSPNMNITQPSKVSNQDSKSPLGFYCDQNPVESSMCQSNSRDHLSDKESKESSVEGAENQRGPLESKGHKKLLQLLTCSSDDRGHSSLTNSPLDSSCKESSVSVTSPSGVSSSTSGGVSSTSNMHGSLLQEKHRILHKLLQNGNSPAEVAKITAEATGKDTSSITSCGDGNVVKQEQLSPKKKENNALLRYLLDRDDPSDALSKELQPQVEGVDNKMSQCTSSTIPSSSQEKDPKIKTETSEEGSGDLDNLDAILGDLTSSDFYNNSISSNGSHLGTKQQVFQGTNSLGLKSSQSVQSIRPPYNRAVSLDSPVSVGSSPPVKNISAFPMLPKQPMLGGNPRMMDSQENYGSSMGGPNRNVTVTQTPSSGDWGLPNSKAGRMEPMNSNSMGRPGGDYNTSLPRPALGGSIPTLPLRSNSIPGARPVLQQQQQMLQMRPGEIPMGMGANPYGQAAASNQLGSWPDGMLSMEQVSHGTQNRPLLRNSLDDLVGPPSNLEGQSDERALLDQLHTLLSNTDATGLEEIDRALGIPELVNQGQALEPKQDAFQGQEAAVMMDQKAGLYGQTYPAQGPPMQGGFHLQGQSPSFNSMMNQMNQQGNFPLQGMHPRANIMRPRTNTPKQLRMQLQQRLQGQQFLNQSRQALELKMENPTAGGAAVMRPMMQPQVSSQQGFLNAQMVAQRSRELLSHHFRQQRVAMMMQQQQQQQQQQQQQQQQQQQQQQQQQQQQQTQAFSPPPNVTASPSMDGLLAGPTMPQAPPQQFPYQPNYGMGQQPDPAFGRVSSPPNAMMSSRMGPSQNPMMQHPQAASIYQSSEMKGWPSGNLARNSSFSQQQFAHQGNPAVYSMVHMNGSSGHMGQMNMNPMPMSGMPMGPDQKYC

[7] = molecular target: Voltage-gated N-type calcium channel alpha-1B subunit/Amyloid beta A4 precursor protein-binding family A member 1 (Homo sapiens, UniProt Q00975+Q02410); type: protein assay
[8] = molecular target: T3, Sentrin-specific protease 6 (Homo sapiens, UniProt Q9GZR1); type: functional;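 also: Luminescence-based dose-response confirmatory assay of SENP6 inhibition, following up an ultra-high-throughput screen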
T3 sequence (Q9GZR1 whole entry): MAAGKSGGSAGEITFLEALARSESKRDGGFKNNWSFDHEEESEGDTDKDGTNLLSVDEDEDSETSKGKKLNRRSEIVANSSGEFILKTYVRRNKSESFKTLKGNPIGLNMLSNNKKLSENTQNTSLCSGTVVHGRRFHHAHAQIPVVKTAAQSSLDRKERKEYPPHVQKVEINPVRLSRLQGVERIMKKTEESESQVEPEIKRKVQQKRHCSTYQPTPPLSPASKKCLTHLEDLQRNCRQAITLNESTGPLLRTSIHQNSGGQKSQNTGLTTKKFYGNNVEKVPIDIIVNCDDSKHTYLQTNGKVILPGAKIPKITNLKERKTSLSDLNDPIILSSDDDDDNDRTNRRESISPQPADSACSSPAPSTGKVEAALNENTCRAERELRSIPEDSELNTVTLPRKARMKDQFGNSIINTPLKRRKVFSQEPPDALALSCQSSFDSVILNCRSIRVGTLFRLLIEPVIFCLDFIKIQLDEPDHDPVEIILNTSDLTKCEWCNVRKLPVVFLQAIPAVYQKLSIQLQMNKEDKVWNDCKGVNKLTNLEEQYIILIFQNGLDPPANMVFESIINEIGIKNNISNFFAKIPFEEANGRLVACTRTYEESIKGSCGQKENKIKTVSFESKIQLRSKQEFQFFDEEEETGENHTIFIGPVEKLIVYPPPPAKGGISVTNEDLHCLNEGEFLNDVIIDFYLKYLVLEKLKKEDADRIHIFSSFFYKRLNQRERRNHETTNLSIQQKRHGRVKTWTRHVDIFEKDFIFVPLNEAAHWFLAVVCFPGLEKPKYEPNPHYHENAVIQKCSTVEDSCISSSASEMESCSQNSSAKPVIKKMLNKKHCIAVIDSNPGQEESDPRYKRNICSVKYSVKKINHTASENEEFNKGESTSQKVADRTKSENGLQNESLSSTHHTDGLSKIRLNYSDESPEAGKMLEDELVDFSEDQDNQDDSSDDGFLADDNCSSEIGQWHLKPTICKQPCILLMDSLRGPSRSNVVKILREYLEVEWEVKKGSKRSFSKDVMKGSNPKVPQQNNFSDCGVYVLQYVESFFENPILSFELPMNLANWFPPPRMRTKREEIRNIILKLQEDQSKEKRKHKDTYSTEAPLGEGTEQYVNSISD

[9] = molecular target: T4, Serine/threonine-protein phosphatase (Homo sapiens, UniProt Q9BPW0); experiment: PP5 phosphatase inhibitors, dose response, biochemical, fluorescence (AID 2395)
T4 sequence (Q9BPW0 whole entry): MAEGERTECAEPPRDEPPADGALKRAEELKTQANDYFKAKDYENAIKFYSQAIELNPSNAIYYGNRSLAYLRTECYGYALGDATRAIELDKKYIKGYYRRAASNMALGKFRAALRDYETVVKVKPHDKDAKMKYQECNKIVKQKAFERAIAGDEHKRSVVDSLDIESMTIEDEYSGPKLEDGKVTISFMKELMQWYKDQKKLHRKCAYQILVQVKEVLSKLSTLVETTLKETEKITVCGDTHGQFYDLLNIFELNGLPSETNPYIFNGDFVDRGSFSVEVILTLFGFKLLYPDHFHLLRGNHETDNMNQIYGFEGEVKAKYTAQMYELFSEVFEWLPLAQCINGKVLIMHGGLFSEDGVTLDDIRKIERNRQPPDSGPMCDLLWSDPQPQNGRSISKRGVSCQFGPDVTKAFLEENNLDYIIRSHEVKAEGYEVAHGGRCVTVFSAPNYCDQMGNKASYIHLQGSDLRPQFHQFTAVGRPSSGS

CCCCCCCCCCCCCCCCn1cc[n+](C)c1
IC50 (Cysteine protease ATG4B): 4.47 µM (active) | IC50 [1]: 12.9 µM (active) | AC50 [2]: 7.76 µM (active) | AC50 [3]: 5.26 µM (active)

O=C(Nc1ccccc1Cl)/C(Cl)=C(\Cl)[S+]([O-])c1ccccc1 (stereo not given)
IC50 [4]: 61.9 µM (inactive) | EC50 [5]: 3.56 µM (active)

Cc1cc(C)nc(/N=c2/ssnc2Cl)c1
EC50 [6]: > 79.4 µM (not active) | IC50 [7]: > 50 µM (inactive)

O=C(NC1(O)C(=O)c2ccccc2C1=O)c1ccccc1
IC50 [8]: 2.39 µM (active) | IC50 [9]: > 0.828 µM (active)

Reference: ChEMBL document CHEMBL1201862, “PubChem BioAssay data set” (2004)
